The numbers were not newly measured in US7842677B2, “Synthetic ganglioside derivatives and compositions thereof” (Seneb Biosciences, Inc., priority 2001, dated 2010), which cites them from elsewhere.

The test system of this series is murine neuroblastoma cells.

For ganglioside GM3, the “growth of neuroblastoma cells (in words)” value was “inhibit the growth”.
